Test: Sensory test of bitterness, agent added to quinine sulfate standard solutions
Format: in vivo, people
Conditions: summary of Tables 2 to 4 (quinine sulfate and catechin test solutions)
Method: The bitterness suppression agent of the present invention may be applied to any substance without any particular limitation as long as the substance contains a bitter component. It is preferably applied to a composition having a bitterness having a bitterness intensity of 7 or less based on the quinine sulfate standard solution. […] More specifically, the bitterness intensity is determined by the following procedure. […] Then, the values of bitterness intensity determined by each subject are averaged out and provided as the bitterness intensity of the test substance. […]
Five subjects conducted a sensory test with reference to the bitterness level of each test solution using the quinine sulfate standard solutions shown in the following Table 1 as a standard, and an average score of the evaluation scores submitted by each subject was calculated. […]

COC(=O)c1ccccc1O [methyl salicylate]
Suppression of bitterness (summary in words): effective suppression of bitterness without impairing the original taste and flavor

Source: patent US20120263849A1, “BITTERNESS SUPPRESSION METHOD” (KAO CORPORATION, priority 2010, published 2012)
